Results: paper PMC5218480 (PLoS ONE, 2017)

System: MV-4-11 cells
Experiment: Gene expression microarray analysis (Affymetrix PrimeView) and GSEA
Type: cell-based, human
Set-up: RFU PODN (11730768_x_at) / Fold change /veh PODN (11730768_x_at) / RFU LINC00158 (11744669_a_at) / Fold change /veh LINC00158 (11744669_a_at) / RFU DUSP10 (11751237_a_at) / Fold change /veh DUSP10 (11751237_a_at) / RFU ID3 (11757404_x_at) / Fold change /veh ID3 (11757404_x_at) / RFU PLEKHG5 (11737974_s_at) / Fold change /veh PLEKHG5 (11737974_s_at) / RFU LRRC4B (11730491_at) / Fold change /veh LRRC4B (11730491_at) / RFU GIMAP4 (11747438_a_at) / Fold change /veh GIMAP4 (11747438_a_at) / RFU KRT8 (11758183_x_at) / Fold change /veh KRT8 (11758183_x_at) / RFU CNN1 (11734310_a_at) / Fold change /veh CNN1 (11734310_a_at) / RFU VPS37D (11726825_at) / Fold change /veh VPS37D (11726825_at) / RFU C10orf10 (11716522_x_at) / Fold change /veh C10orf10 (11716522_x_at) / RFU KIR2DL2 /// KIR2DL4 /// KIR2DL5A /// KIR2DL5B /// KIR2DS1 /// KIR2DS2 /// KIR2DS3 /// KIR2DS4 /// KIR3DL3 /// KIR3DL3 /// KIR3DS1 (11738374_at) / Fold change /veh KIR2DL2 /// KIR2DL4 /// KIR2DL5A /// KIR2DL5B /// KIR2DS1 /// KIR2DS2 /// KIR2DS3 /// KIR2DS4 /// KIR3DL3 /// KIR3DL3 /// KIR3DS1 (11738374_at) / RFU C1QL1 (11718748_at) / Fold change /veh C1QL1 (11718748_at) / RFU TMPRSS4 (11747572_a_at) / Fold change /veh TMPRSS4 (11747572_a_at) / RFU HAMP (11756126_x_at) / Fold change /veh HAMP (11756126_x_at) / RFU RNFT2 (11725882_a_at) / Fold change /veh RNFT2 (11725882_a_at) / RFU NR4A2 (11747474_a_at) / Fold change /veh NR4A2 (11747474_a_at) / RFU ABCC12 (11746883_a_at) / Fold change /veh ABCC12 (11746883_a_at) / RFU TMEM136 (11760407_x_at) / Fold change /veh TMEM136 (11760407_x_at) / RFU CLDN22 /// WWC2 (11732394_at) / Fold change /veh CLDN22 /// WWC2 (11732394_at) / RFU HLA-DPB1 (11760878_x_at) / Fold change /veh HLA-DPB1 (11760878_x_at) / RFU SPINT1 (11716480_a_at) / Fold change /veh SPINT1 (11716480_a_at) / RFU GAP43 (11754022_s_at) / Fold change /veh GAP43 (11754022_s_at) / RFU A4GNT (11735810_at) / Fold change /veh A4GNT (11735810_at) / RFU PRB3 (11715151_x_at) / Fold change /veh PRB3 (11715151_x_at) / RFU TUBB4B (11761932_at) / Fold change /veh TUBB4B (11761932_at) / RFU CAPN14 (11732068_a_at) / Fold change /veh CAPN14 (11732068_a_at) / RFU TMCC2 (11721928_a_at) / Fold change /veh TMCC2 (11721928_a_at) / RFU IRGQ (11745062_a_at) / Fold change /veh IRGQ (11745062_a_at) / RFU FAM174B (11720279_a_at) / Fold change /veh FAM174B (11720279_a_at) / RFU TMPRSS4 (11748680_a_at) / Fold change /veh TMPRSS4 (11748680_a_at) / RFU FAM212B (11763350_a_at) / Fold change /veh FAM212B (11763350_a_at) / RFU PLEKHG5 (11743358_a_at) / Fold change /veh PLEKHG5 (11743358_a_at) / RFU ZSCAN30 (11745921_a_at) / Fold change /veh ZSCAN30 (11745921_a_at) / RFU CMKLR1 (11741424_a_at) / Fold change /veh CMKLR1 (11741424_a_at) / RFU LOC101060620 /// MAPK8IP1 (11723275_at) / Fold change /veh LOC101060620 /// MAPK8IP1 (11723275_at) / RFU SPTSSB (11747773_x_at) / Fold change /veh SPTSSB (11747773_x_at) / RFU PRSS12 (11739890_at) / Fold change /veh PRSS12 (11739890_at) / RFU BIN1 (11741810_x_at) / Fold change /veh BIN1 (11741810_x_at) / RFU WNT11 (11732464_a_at) / Fold change /veh WNT11 (11732464_a_at) / RFU C10orf10 (11716521_a_at) / Fold change /veh C10orf10 (11716521_a_at) / RFU C5orf56 (11738089_at) / Fold change /veh C5orf56 (11738089_at) / RFU CYB561 (11721691_x_at) / Fold change /veh CYB561 (11721691_x_at) / RFU ANKRD19P (11752326_a_at) / Fold change /veh ANKRD19P (11752326_a_at) / RFU OR2T12 /// OR2T33 /// OR2T8 (11738714_s_at) / Fold change /veh OR2T12 /// OR2T33 /// OR2T8 (11738714_s_at) / RFU VCAN (11748164_a_at) / Fold change /veh VCAN (11748164_a_at) / RFU JSRP1 (11732532_at) / Fold change /veh JSRP1 (11732532_at) / RFU KRTAP10-11 (11738290_x_at) / Fold change /veh KRTAP10-11 (11738290_x_at) / RFU MYO3A (11730013_a_at) / Fold change /veh MYO3A (11730013_a_at) / RFU EBF3 (11725865_a_at) / Fold change /veh EBF3 (11725865_a_at) / RFU CAMK2N1 (11719241_x_at) / Fold change /veh CAMK2N1 (11719241_x_at) / RFU C5orf56 (11738088_a_at) / Fold change /veh C5orf56 (11738088_a_at) / RFU OLFML3 (11715873_a_at) / Fold change /veh OLFML3 (11715873_a_at) / RFU LOC100653217 /// NTM (11731650_a_at) / Fold change /veh LOC100653217 /// NTM (11731650_a_at) / RFU MAPK11 (11762145_a_at) / Fold change /veh MAPK11 (11762145_a_at) / RFU FIZ1 (11724087_x_at) / Fold change /veh FIZ1 (11724087_x_at) / RFU OASL (11726364_x_at) / Fold change /veh OASL (11726364_x_at) / RFU SOX15 (11748057_x_at) / Fold change /veh SOX15 (11748057_x_at) / RFU CD79A (11719716_a_at) / Fold change /veh CD79A (11719716_a_at) / RFU HIST1H1D (11736915_at) / Fold change /veh HIST1H1D (11736915_at) / RFU CASKIN2 (11723855_a_at) / Fold change /veh CASKIN2 (11723855_a_at) / RFU LOC730098 (11760151_x_at) / Fold change /veh LOC730098 (11760151_x_at) / RFU OR4N2 (11742367_at) / Fold change /veh OR4N2 (11742367_at) / RFU PRRT2 (11749266_a_at) / Fold change /veh PRRT2 (11749266_a_at) / RFU SNX32 (11753110_a_at) / Fold change /veh SNX32 (11753110_a_at) / RFU CDHR5 (11726645_a_at) / Fold change /veh CDHR5 (11726645_a_at) / RFU RCAN1 (11760418_a_at) / Fold change /veh RCAN1 (11760418_a_at) / RFU FAM167A (11723789_a_at) / Fold change /veh FAM167A (11723789_a_at) / RFU FAM26E (11764081_at) / Fold change /veh FAM26E (11764081_at) / RFU ISYNA1 (11749810_s_at) / Fold change /veh ISYNA1 (11749810_s_at) / RFU ACY1 (11761880_at) / Fold change /veh ACY1 (11761880_at) / RFU 11764098_at / Fold change /veh 11764098_at / RFU SAMD14 (11745864_x_at) / Fold change /veh SAMD14 (11745864_x_at) / RFU NPB (11741838_a_at) / Fold change /veh NPB (11741838_a_at) / RFU TMPRSS6 (11731388_a_at) / Fold change /veh TMPRSS6 (11731388_a_at) / RFU KRTAP10-2 (11738614_at) / Fold change /veh KRTAP10-2 (11738614_at) / RFU ARHGAP8 /// PRR5-ARHGAP8 (11727945_x_at) / Fold change /veh ARHGAP8 /// PRR5-ARHGAP8 (11727945_x_at) / RFU KRTAP5-7 /// NADSYN1 (11734609_at) / Fold change /veh KRTAP5-7 /// NADSYN1 (11734609_at) / RFU RASL12 (11751679_a_at) / Fold change /veh RASL12 (11751679_a_at) / RFU CDKN2B (11736163_a_at) / Fold change /veh CDKN2B (11736163_a_at) / RFU PRF1 (11729649_at) / Fold change /veh PRF1 (11729649_at) / RFU, ZNF638 /// ZNF638-IT1 / Fold change vs veh, ZNF638 /// ZNF638-IT1 / RFU, PANK3 / Fold change vs veh, PANK3 / RFU, SH3YL1 / Fold change vs veh, SH3YL1 / RFU, ZEB2 / Fold change vs veh, ZEB2 / RFU, NRIP1 / Fold change vs veh, NRIP1 / RFU, PTTG1IP / Fold change vs veh, PTTG1IP / RFU, CAPN2 / Fold change vs veh, CAPN2 / RFU, MED14 / Fold change vs veh, MED14 / RFU, SNORA58 / Fold change vs veh, SNORA58 / RFU, C1orf63 / Fold change vs veh, C1orf63 / RFU, LRRFIP1 / Fold change vs veh, LRRFIP1 / RFU, NDUFAF7 / Fold change vs veh, NDUFAF7 / RFU, SLC12A2 / Fold change vs veh, SLC12A2 / RFU, IBTK / Fold change vs veh, IBTK / RFU, ESF1 / Fold change vs veh, ESF1 / Fold change vs veh, TMEM50B / RFU, TAOK1 / Fold change vs veh, TAOK1 / RFU, ACBD3 / Fold change vs veh, ACBD3 / RFU, TMA16 / Fold change vs veh, TMA16 / RFU, RWDD3 / Fold change vs veh, RWDD3 / RFU, BCAT1 / Fold change vs veh, BCAT1 / RFU, EDEM3 / Fold change vs veh, EDEM3 / RFU, TMEM33 / Fold change vs veh, TMEM33 / RFU, WDR75 / Fold change vs veh, WDR75 / RFU, AHCTF1 / Fold change vs veh, AHCTF1 / RFU, TFRC / Fold change vs veh, TFRC / RFU, ZDHHC17 / Fold change vs veh, ZDHHC17 / RFU, NOM1 / Fold change vs veh, NOM1 / RFU, ARL8B / Fold change vs veh, ARL8B / RFU, ZBTB11 / Fold change vs veh, ZBTB11 / RFU, TAMM41 / Fold change vs veh, TAMM41 / RFU, KIAA1704 /// LOC100996395 / Fold change vs veh, KIAA1704 /// LOC100996395 / RFU, ING1 / Fold change vs veh, ING1 / RFU, TRMT61B / Fold change vs veh, TRMT61B / RFU, FUBP3 / Fold change vs veh, FUBP3 / RFU, TP53 / Fold change vs veh, TP53 / RFU, TNKS2 / Fold change vs veh, TNKS2 / RFU, ZFP14 / Fold change vs veh, ZFP14 / RFU, ACTR2 / Fold change vs veh, ACTR2 / RFU, PPP3R1 / Fold change vs veh, PPP3R1 / RFU, PIK3R1 / Fold change vs veh, PIK3R1 / RFU, HNRNPA1 / Fold change vs veh, HNRNPA1 / RFU, RNF170 / Fold change vs veh, RNF170 / RFU, ZNF28 / Fold change vs veh, ZNF28 / RFU, RNGTT / Fold change vs veh, RNGTT / RFU, OGT / Fold change vs veh, OGT / RFU, BRD1 / Fold change vs veh, BRD1 / RFU, MARS / Fold change vs veh, MARS / RFU, ZNF655 / Fold change vs veh, ZNF655 / RFU, FAHD1 / Fold change vs veh, FAHD1 / RFU, BDP1 / Fold change vs veh, BDP1 / RFU, LRRCC1 / Fold change vs veh, LRRCC1 / RFU, ARID1A / Fold change vs veh, ARID1A / RFU, ZNF146 / Fold change vs veh, ZNF146 / RFU, ZNF330 / Fold change vs veh, ZNF330 / RFU, GPN3 / Fold change vs veh, GPN3 / RFU, C9orf123 / Fold change vs veh, C9orf123 / RFU, N4BP2L2 / Fold change vs veh, N4BP2L2 / RFU, ARFIP1 / Fold change vs veh, ARFIP1 / RFU, FAM179B / Fold change vs veh, FAM179B / RFU, BCL10 / Fold change vs veh, BCL10 / RFU, UHRF1BP1L / Fold change vs veh, UHRF1BP1L / RFU, BET1 / Fold change vs veh, BET1 / RFU, CNOT2 / Fold change vs veh, CNOT2 / RFU, ZNF268 / Fold change vs veh, ZNF268 / Fold change vs veh, ZNF507 / RFU, DGCR2 / Fold change vs veh, DGCR2 / RFU, WDSUB1 / Fold change vs veh, WDSUB1 / Fold change vs veh, HSP90B1 /// MIR3652 / RFU, ADSS / Fold change vs veh, ADSS / RFU, GK / Fold change vs veh, GK / RFU, ZNF148 / Fold change vs veh, ZNF148 / RFU, TAF9 / Fold change vs veh, TAF9 / RFU, SLC1A5 / Fold change vs veh, SLC1A5 / RFU, SLMO2 / Fold change vs veh, SLMO2 / RFU, ABCC4 / Fold change vs veh, ABCC4 / RFU, LOC101060439 /// RAP1B / Fold change vs veh, LOC101060439 /// RAP1B / RFU, RFX7 / Fold change vs veh, RFX7 / RFU, GTPBP10 / Fold change vs veh, GTPBP10 / RFU, CNEP1R1 / Fold change vs veh, CNEP1R1 / RFU, BIVM-ERCC5 /// ERCC5 / Fold change vs veh, BIVM-ERCC5 /// ERCC5 / RFU, ILF3 / Fold change vs veh, ILF3 / RFU 11762660_at / Fold change /veh 11762660_at / RFU VCAN (11757783_s_at) / Fold change /veh VCAN (11757783_s_at) / RFU DDX43 (11728927_at) / Fold change /veh DDX43 (11728927_at) / RFU KRT8 (11758188_x_at) / Fold change /veh KRT8 (11758188_x_at) / RFU NKD1 (11759106_at) / Fold change /veh NKD1 (11759106_at) / RFU SRD5A1 (11742802_a_at) / Fold change /veh SRD5A1 (11742802_a_at) / RFU TPSAB1 /// TPSB2 (11721975_s_at) / Fold change /veh TPSAB1 /// TPSB2 (11721975_s_at) / RFU GSTM3 (11746129_a_at) / Fold change /veh GSTM3 (11746129_a_at) / RFU IL23R (11737362_x_at) / Fold change /veh IL23R (11737362_x_at) / RFU TMEM51 (11727254_a_at) / Fold change /veh TMEM51 (11727254_a_at) / RFU PIWIL2 (11732686_x_at) / Fold change /veh PIWIL2 (11732686_x_at) / RFU ORM1 (11744905_x_at) / Fold change /veh ORM1 (11744905_x_at) / RFU CCDC152 (11743942_at) / Fold change /veh CCDC152 (11743942_at) / RFU ECM1 (11717891_a_at) / Fold change /veh ECM1 (11717891_a_at) / RFU IL23R (11748794_a_at) / Fold change /veh IL23R (11748794_a_at) / RFU TNFAIP8L3 (11732012_x_at) / Fold change /veh TNFAIP8L3 (11732012_x_at) / RFU MBOAT4 (11741988_at) / Fold change /veh MBOAT4 (11741988_at) / RFU 11764193_at / Fold change /veh 11764193_at / RFU TMEM53 (11763286_at) / Fold change /veh TMEM53 (11763286_at) / RFU MAGEB2 (11727129_at) / Fold change /veh MAGEB2 (11727129_at) / RFU TMEM200A (11744735_a_at) / Fold change /veh TMEM200A (11744735_a_at) / RFU CCDC152 (11751479_a_at) / Fold change /veh CCDC152 (11751479_a_at) / RFU FAM211A (11726209_a_at) / Fold change /veh FAM211A (11726209_a_at) / RFU RGS16 (11746705_a_at) / Fold change /veh RGS16 (11746705_a_at) / RFU VCAN (11755009_s_at) / Fold change /veh VCAN (11755009_s_at) / RFU RHOB (11743442_s_at) / Fold change /veh RHOB (11743442_s_at) / RFU RGS16 (11720943_a_at) / Fold change /veh RGS16 (11720943_a_at) / RFU RGS16 (11720944_at) / Fold change /veh RGS16 (11720944_at) / RFU, VPS4B / Fold change vs veh, VPS4B / RFU, CREB1 / Fold change vs veh, CREB1 / RFU, DNAJC13 / Fold change vs veh, DNAJC13 / RFU, GNAQ / Fold change vs veh, GNAQ / RFU, CDK5R1 / Fold change vs veh, CDK5R1 / RFU, ZRANB3 / Fold change vs veh, ZRANB3 / RFU, CUL4A / Fold change vs veh, CUL4A / RFU, CCNY / Fold change vs veh, CCNY / RFU, UFL1 / Fold change vs veh, UFL1 / RFU, COG3 / Fold change vs veh, COG3 / RFU, DIAPH2 / Fold change vs veh, DIAPH2 / RFU, SKA2 / Fold change vs veh, SKA2 / RFU, AFF3 / Fold change vs veh, AFF3 / RFU, LMF1 / Fold change vs veh, LMF1 / RFU, IPO11 / Fold change vs veh, IPO11 / RFU, DFFB / Fold change vs veh, DFFB / RFU, FOXP1 / Fold change vs veh, FOXP1 / RFU, CARD8 / Fold change vs veh, CARD8 / RFU, STRN3 / Fold change vs veh, STRN3 / RFU, ADK / Fold change vs veh, ADK / RFU, RASSF2 / Fold change vs veh, RASSF2 / RFU, WIPF1 / Fold change vs veh, WIPF1 / RFU, LARP1B / Fold change vs veh, LARP1B / RFU, RASA1 / Fold change vs veh, RASA1 / RFU, RB1 / Fold change vs veh, RB1 / RFU, PPFIA1 / Fold change vs veh, PPFIA1 / RFU, MAT2A / Fold change vs veh, MAT2A / RFU, CCT5 / Fold change vs veh, CCT5 / RFU, WDR92 / Fold change vs veh, WDR92 / RFU, CUX1 / Fold change vs veh, CUX1 / RFU, TTC7A / Fold change vs veh, TTC7A / RFU, TMEM135 / Fold change vs veh, TMEM135 / RFU, DEPTOR / Fold change vs veh, DEPTOR / RFU, CPM / Fold change vs veh, CPM / RFU, DNAJB6 / Fold change vs veh, DNAJB6 / RFU, CACNA2D3 / Fold change vs veh, CACNA2D3 / RFU, DTX4 / Fold change vs veh, DTX4 / RFU, TFCP2 / Fold change vs veh, TFCP2 / RFU, GMCL1 /// GMCL1P1 / Fold change vs veh, GMCL1 /// GMCL1P1 / RFU, AEBP2 / Fold change vs veh, AEBP2 / RFU, SNHG1 /// SNORD22 /// SNORD25 /// SNORD26 /// SNORD27 /// SNORD28 /// SNORD29 /// SNORD31 / Fold change vs veh, SNHG1 /// SNORD22 /// SNORD25 /// SNORD26 /// SNORD27 /// SNORD28 /// SNORD29 /// SNORD31 / Fold change (Aza/veh), C12orf56 (ProbeSet 11735607_a_at) / Fold change (ACY-1035/veh), C12orf56 (ProbeSet 11735607_a_at) / Fold change (Aza/veh), FGFR1OP (ProbeSet 11751329_s_at) / Fold change (ACY-1035/veh), FGFR1OP (ProbeSet 11751329_s_at) / Fold change (Aza/veh), VPS36 (ProbeSet 11739960_a_at) / Fold change (ACY-1035/veh), VPS36 (ProbeSet 11739960_a_at) / RFU SYPL1 (11715823_x_at) / Fold change /veh SYPL1 (11715823_x_at) / RFU IGFBP7 (11715501_s_at) / Fold change /veh IGFBP7 (11715501_s_at) / RFU REEP3 (11722064_at) / Fold change /veh REEP3 (11722064_at) / RFU IGLL1 (11728026_x_at) / Fold change /veh IGLL1 (11728026_x_at): dose or concentration left out as unconfirmed
Conditions: ProbeSet 11733176_x_at; LIST B

Nc1ccc(-c2cccs2)cc1NC(=O)c1ccc2c(c1)cc(C1CC1)n2CCN1CCOCC1 [ACY-1035]
Fold change vs veh, ZNF507: 0.90
